Data from US20250205344A1, “2,4-DIOXOTETRAHYDROPYRIMIDINYL DERATIVES AS DEGRONS IN PROTACS” (GLAXOSMITHKLINE INTELLECTUAL PROPERTY DEVELOPMENT LIMITED, priority 2022, published 2025).
Where a name gives a salt, the structure may show the parent alone.

Molecular target: T1, Full length Cereblon protein (6His tev Cereblon/6His tev DDB1ΔBPB) (Homo sapiens, UniProt Q96SW2)
T1 construct: Full length Cereblon protein (6His tev Cereblon/6His tev DDB1ΔBPB) was expressed and purified from E. coli; made in house; host or cells: E. coli
Experiment: Cereblon Binding Assay (TR-FRET)
Conditions: 5 nM protein, 50 nM Alexa647-lenalidomide ligand, read-out: Mean pIC50 (converted)
Method: Full length Cereblon protein (6His tev Cereblon/6His tev DDB1ΔBPB) was expressed and purified from E. coli to monitor compound binding. […] A Thermo Scientific Multidrop Combi was used to dispense 5 μL of 10 nM protein in assay buffer of 50 mM
HEPES, 150 mM NaCl, 5% glycerol, 1 mM DTT and 1 mM CHAPS, pH 7.4, in the presence of 100 nM fluorescent ligand (Final assay concentrations of 5 nM protein and 50 nM ligand). After equilibrating for 15 min in the dark at room temperature a 5 μL addition was made of 2 nM europium chelate labelled anti-6His antibody (Perkin Elmer, W1024, AD0111) in assay buffer (1 nM FAC). […] TR-FRET ratio data was normalised to high (DMSO) and low (reaction in the absence of protein) controls and pIC50 values determined for each of the compounds tested by fitting the fluorescence ratio data to a four parameter model:
[formula] • where ‘a’ is the minimum, ‘b’ is the maximum, ‘c’ is the pIC50 and ‘d’ is the Hill slope.

T1 sequence (Q96SW2 whole entry, stated change not applied): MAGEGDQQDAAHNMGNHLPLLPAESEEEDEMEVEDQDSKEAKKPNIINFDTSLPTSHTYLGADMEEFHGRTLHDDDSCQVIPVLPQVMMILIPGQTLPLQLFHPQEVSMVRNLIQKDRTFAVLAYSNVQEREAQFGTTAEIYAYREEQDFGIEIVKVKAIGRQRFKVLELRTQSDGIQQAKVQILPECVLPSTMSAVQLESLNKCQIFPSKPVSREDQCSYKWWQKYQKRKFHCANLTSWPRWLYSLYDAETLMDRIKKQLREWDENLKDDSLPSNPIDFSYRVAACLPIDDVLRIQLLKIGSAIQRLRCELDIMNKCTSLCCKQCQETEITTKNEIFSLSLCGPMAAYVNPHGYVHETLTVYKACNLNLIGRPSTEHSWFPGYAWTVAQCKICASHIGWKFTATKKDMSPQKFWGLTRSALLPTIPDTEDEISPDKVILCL

IC50 [nM]	SMILES
24	CCn1ccc2c(N3CCC(=O)NC3=O)cccc21 [ECB50, 1-(1-Ethyl-1H-indol-4-yl)dihydropyrimidine-2,4(1H,3H)-dione]
55	O=C1CCN(c2cc(C(F)(F)F)cc3c2ccn3C2CCNCC2)C(=O)N1 [ECB37, 1-(1-(piperidin-4-yl)-6-(trifluoromethyl)-1H-indol-4-yl)dihydropyrimidine-2,4(1H,3H)-dione]
79.4	O=C1CCN(c2nccc3c2cnn3C2CCNCC2)C(=O)N1 [ECB7, 1-(1-(piperidin-4-yl)-1H-pyrazolo[4,3-c]pyridin-4-yl)dihydropyrimidine-2,4(1H,3H)-dione]
31.6	CC(C)n1ccc2c(N3CCC(=O)NC3=O)cc(C(=O)N(C)CC3CCNCC3)cc21 [ECB16, 4-(2,4-Dioxotetrahydropyrimidin-1(2H)-yl)-1-isopropyl-N-methyl-N-(piperidin-4-ylmethyl)-1H-indole-6-carboxamide]
25.1	CC(C)n1ccc2c(N3CCC(=O)NC3=O)cc(C(=O)N(C)C3CCNCC3)cc21 [ECB15, 4-(2,4-Dioxotetrahydropyrimidin-1(2H)-yl)-1-isopropyl-N-methyl-N-(piperidin-4-yl)-1H-indole-6-carboxamide]
25.1	CCn1ccc2c(N3CCC(=O)NC3=O)cncc21 [ECB51, 1-(1-Ethyl-1H-pyrrolo[2,3-c]pyridin-4-yl)dihydropyrimidine-2,4(1H,3H)-dione]
2.51	CC(C)n1ccc2c(N3CCC(=O)NC3=O)cc(C(=O)N3CCNCC3)cc21 [ECB11, 1-(1-isopropyl-6-(piperazine-1-carbonyl)-1H-indol-4-yl)dihydropyrimidine-2,4(1H,3H)-dione]
10	O=C1CCN(c2cccc3c2cnn3C2CCNCC2)C(=O)N1 [ECB18, 1-(1-(Piperidin-4-yl)-1H-indazol-4-yl)dihydropyrimidine-2,4(1H,3H)-dione]
120	O=C1CCN(c2cccc3c2ccn3C[C@]2(F)CCCNC2)C(=O)N1 [ECB29, (S)-1-(1-((3-fluoropiperidin-3-yl)methyl)-1H-indol-4-yl)dihydropyrimidine-2,4(1H,3H)-dione]

Molecular target: T2, Androgen Receptor (Homo sapiens, UniProt P10275, T878A)
T2 construct: the AR gene was modified, using CRISPR/Cas9 editing, so the expressed AR protein included an 11 amino acid HiBiT tag; endogenous in cells; host or cells: clonal LnCaP-derived line, AR gene edited by CRISPR/Cas9
Experiment: Androgen Receptor Degradation Assay (Nano-Glo HiBiT)
Type: cell-based
Conditions: HiBiT-tagged AR in human LnCaP cells, 18 h
Summary of the method: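 LnCaP cells with CRISPR-knocked-in N-terminal HiBiT-tagged AR (10,000/well) treated 18 h at 37 °C with PROTACs over 11 threefold concentrations; lytic HiBiT luminescence normalised to DMSO (0%) and cell-free (100%) controls. Relative DC50 = 4-parameter fit inflection; absolute DC50 = 50% degradation interpolation; Dmax = maximum observed degradation.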

T2 sequence (P10275 whole entry T878A): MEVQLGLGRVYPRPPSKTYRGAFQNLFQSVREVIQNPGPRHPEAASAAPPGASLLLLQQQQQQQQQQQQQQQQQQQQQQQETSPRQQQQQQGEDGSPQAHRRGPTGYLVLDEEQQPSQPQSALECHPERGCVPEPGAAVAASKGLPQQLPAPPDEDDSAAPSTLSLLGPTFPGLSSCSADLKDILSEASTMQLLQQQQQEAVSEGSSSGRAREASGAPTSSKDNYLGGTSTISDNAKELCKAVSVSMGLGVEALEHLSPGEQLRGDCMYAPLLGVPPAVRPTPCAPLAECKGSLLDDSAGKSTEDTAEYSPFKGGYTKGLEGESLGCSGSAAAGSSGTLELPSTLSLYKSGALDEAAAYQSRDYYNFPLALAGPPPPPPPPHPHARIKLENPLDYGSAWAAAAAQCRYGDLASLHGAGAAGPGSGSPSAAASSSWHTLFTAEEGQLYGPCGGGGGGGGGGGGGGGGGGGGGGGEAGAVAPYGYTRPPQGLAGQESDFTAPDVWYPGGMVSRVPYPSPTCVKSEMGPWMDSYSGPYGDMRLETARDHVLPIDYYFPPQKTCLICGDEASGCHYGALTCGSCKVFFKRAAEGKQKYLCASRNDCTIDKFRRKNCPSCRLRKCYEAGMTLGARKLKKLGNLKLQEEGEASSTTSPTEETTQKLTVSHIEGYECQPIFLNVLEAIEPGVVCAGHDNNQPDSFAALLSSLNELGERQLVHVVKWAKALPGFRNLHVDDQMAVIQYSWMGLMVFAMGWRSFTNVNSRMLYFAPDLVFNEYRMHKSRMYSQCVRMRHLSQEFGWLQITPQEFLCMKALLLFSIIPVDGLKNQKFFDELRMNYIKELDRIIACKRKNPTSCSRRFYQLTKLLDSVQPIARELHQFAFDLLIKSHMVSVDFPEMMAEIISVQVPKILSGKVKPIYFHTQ
T2 sequence (Q96SW2 whole entry partner): as the sequence (Q96SW2 whole entry, stated change not applied) above
T2 sequence (Q16531 whole entry partner): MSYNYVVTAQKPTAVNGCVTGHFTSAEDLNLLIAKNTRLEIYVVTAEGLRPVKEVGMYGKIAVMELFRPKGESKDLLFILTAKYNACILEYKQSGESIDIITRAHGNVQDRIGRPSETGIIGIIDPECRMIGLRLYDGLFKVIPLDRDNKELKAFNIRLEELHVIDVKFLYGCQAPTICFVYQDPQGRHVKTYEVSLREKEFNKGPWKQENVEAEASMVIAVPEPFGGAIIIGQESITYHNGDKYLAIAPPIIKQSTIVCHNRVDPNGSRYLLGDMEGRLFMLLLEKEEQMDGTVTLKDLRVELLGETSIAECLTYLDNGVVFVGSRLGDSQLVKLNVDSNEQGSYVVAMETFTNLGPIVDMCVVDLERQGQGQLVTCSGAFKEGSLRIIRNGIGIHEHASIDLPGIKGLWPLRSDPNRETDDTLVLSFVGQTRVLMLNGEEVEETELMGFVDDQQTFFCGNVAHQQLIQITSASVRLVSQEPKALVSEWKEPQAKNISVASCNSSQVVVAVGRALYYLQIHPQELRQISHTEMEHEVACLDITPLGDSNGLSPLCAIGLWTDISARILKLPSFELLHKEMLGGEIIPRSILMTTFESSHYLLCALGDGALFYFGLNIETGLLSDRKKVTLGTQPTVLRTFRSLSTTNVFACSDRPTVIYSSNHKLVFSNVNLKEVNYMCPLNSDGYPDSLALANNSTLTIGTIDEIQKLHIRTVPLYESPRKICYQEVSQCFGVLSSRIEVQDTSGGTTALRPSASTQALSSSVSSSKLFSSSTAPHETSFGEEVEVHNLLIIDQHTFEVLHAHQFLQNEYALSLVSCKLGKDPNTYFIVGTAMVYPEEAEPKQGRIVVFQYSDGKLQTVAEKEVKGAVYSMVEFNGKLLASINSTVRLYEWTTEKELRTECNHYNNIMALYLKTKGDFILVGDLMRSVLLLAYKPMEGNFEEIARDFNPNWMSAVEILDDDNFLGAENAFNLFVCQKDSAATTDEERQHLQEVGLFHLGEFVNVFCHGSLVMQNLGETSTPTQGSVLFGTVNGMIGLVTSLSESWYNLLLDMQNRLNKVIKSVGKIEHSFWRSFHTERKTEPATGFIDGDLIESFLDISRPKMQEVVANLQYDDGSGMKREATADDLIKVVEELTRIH

mean relative pDC50	SMILES
5.67	CC1(C)[C@H](NC(=O)c2ncc(N3CCC(CN4CCC(n5ncc6c(N7CCC(=O)NC7=O)nccc65)CC4)CC3)cn2)C(C)(C)[C@H]1Oc1ccc(C#N)c(Cl)c1 [EAR273, N-((1r,3r)-3-(3-Chloro-4-cyanophenoxy)-2,2,4,4-tetramethylcyclobutyl)-5-(4-((4-(4-(2,4-dioxotetrahydropyrimidin-1(2H)-yl)-1H-pyrazolo[4,3-c]pyridin-1-yl)piperidin-1-yl)methyl)piperidin-1-yl)pyrimidine-2-carboxamide]

Same assay, conditions: LNCaP, 18 h, HiBiT-tagged AR in human LnCaP cells, read-out: mean asymptote max

Dmax [%]	SMILES
≥ 50	CC1(C)[C@H](NC(=O)c2ncc(N3CCC(CN4CCC(n5ncc6c(N7CCC(=O)NC7=O)nccc65)CC4)CC3)cn2)C(C)(C)[C@H]1Oc1ccc(C#N)c(Cl)c1 [EAR273, N-((1r,3r)-3-(3-Chloro-4-cyanophenoxy)-2,2,4,4-tetramethylcyclobutyl)-5-(4-((4-(4-(2,4-dioxotetrahydropyrimidin-1(2H)-yl)-1H-pyrazolo[4,3-c]pyridin-1-yl)piperidin-1-yl)methyl)piperidin-1-yl)pyrimidine-2-carboxamide]
≥ 50	N#Cc1ccc(O[C@H]2CC[C@H](NC(=O)c3ccc(N4CCC(CN5CCC(n6ccc7c(N8CCC(=O)NC8=O)nccc76)CC5)CC4)nn3)CC2)cc1Cl [EAR148, N-((1r,4r)-4-(3-Chloro-4-cyanophenoxy)cyclohexyl)-6-(4-((4-(4-(2,4-dioxotetrahydropyrimidin-1(2H)-yl)-1H-pyrrolo[3,2-c]pyridin-1-yl)piperidin-1-yl)methyl)piperidin-1-yl)pyridazine-3-carboxamide]
≥ 50	CC1(CN2CCC(n3ncc4c(N5CCC(=O)NC5=O)cccc43)CC2)CCN(c2ccc(C(=O)N[C@H]3CC[C@H](Oc4ccc(C#N)c(Cl)c4)CC3)nn2)C1 (stereo partly drawn) [EAR241, N-((1r,4r)-4-(3-chloro-4-cyanophenoxy)cyclohexyl)-6-(3-((4-(4-(2,4-dioxotetrahydropyrimidin-1(2H)-yl)-1H-indazol-1-yl)piperidin-1-yl)methyl)-3-methylpyrrolidin-1-yl)pyridazine-3-carboxamide]
≥ 50	N#Cc1ccc(O[C@H]2CC[C@H](NC(=O)c3ccc(N4CCC(CN5CCC(n6ccc7c(N8CCC(=O)NC8=O)cc(Cl)cc76)CC5)CC4)nn3)CC2)cc1Cl [EAR32, 6-(4-((4-(6-Chloro-4-(2,4-dioxotetrahydropyrimidin-1(2H)-yl)-1H-indol-1-yl)piperidin-1-yl)methyl)piperidin-1-yl)-N-((1r,4r)-4-(3-chloro-4-cyanophenoxy)cyclohexyl)pyridazine-3-carboxamide hydrochloride]
≥ 50	N#Cc1ccc(O[C@H]2CC[C@H](NC(=O)c3ccc(N4CCC(CN5CCC(n6ccc7c(N8CCC(=O)NC8=O)cccc76)CC5)CC4)cc3)CC2)cc1Cl [EAR169, N-((1r,4r)-4-(3-chloro-4-cyanophenoxy)cyclohexyl)-4-(4-((4-(4-(2,4-dioxotetrahydropyrimidin-1(2H)-yl)-1H-indol-1-yl)piperidin-1-yl)methyl)piperidin-1-yl)benzamide]
≥ 50	N#Cc1ccc(O[C@H]2CC[C@H](NC(=O)c3ccc(N4CCC[C@H](CN5CCC(n6ncc7c(N8CCC(=O)NC8=O)cccc76)CC5)C4)nn3)CC2)cc1Cl (single isomer, unassigned) [EAR136]
≥ 50	N#Cc1ccc(O[C@H]2CC[C@H](NC(=O)c3ccc(N4CCC(CN5CCC(n6ccc7c(N8CCC(=O)NC8=O)ccnc76)CC5)CC4)nn3)CC2)cc1C(F)(F)F [EAR212, N-((1r,4r)-4-(4-Cyano-3-(trifluoromethyl)phenoxy)cyclohexyl)-6-(4-((4-(4-(2,4-dioxotetrahydropyrimidin-1(2H)-yl)-1H-pyrrolo[2,3-b]pyridin-1-yl)piperidin-1-yl)methyl)piperidin-1-yl)pyridazine-3-carboxamide]
≥ 50	N#Cc1ccc(O[C@H]2CC[C@H](NC(=O)c3ccc(N4CCC(CN5CCC(n6ccc7c(N8CCC(=O)NC8=O)ncnc76)CC5)CC4)cc3)CC2)cc1Cl [EAR195, N-((1r,4r)-4-(3-chloro-4-cyanophenoxy)cyclohexyl)-4-(4-((4-(4-(2,4-dioxotetrahydropyrimidin-1(2H)-yl)-7H-pyrrolo[2,3-d]pyrimidin-7-yl)piperidin-1-yl)methyl)piperidin-1-yl)benzamide hydrochloride]
≥ 50	N#Cc1ccc(O[C@H]2CC[C@H](NC(=O)c3cnc(N4CCC(CN5CCC(n6ncc7c(N8CCC(=O)NC8=O)cccc76)CC5)CC4)cn3)CC2)cc1Cl [EAR39, N-((1r,4r)-4-(3-Chloro-4-cyanophenoxy)cyclohexyl)-5-(4-((4-(4-(2,4-dioxotetrahydropyrimidin-1(2H)-yl)-1H-indazol-1-yl)piperidin-1-yl)methyl)piperidin-1-yl)pyrazine-2-carboxamide hydrochloride]
≥ 50	N#Cc1ccc(O[C@H]2CC[C@H](NC(=O)c3ccc(N4CCCC(N5CCC(n6ccc7c(N8CCC(=O)NC8=O)cccc76)CC5)C4)cc3)CC2)cc1Cl (stereo partly drawn) [EAR28, N-((1r,4r)-4-(3-Chloro-4-cyanophenoxy)cyclohexyl)-4-(4-(4-(2,4-dioxotetrahydropyrimidin-1(2H)-yl)-1H-indol-1-yl)-[1,3′-bipiperidin]-1′-yl)benzamide]

SMILES	Dmax [%]
C[C@@H]1CN(c2ccc(C#N)c(Cl)c2)[C@@H](C)CN1C(=O)Nc1ccc(OCCCCN2CCC(n3ccc4c(N5CCC(=O)NC5=O)cccc43)CC2)nc1 [EAR109, (2R,5S)-4-(3-Chloro-4-cyanophenyl)-N-(6-(4-(4-(4-(2,4-dioxotetrahydropyrimidin-1(2H)-yl)-1H-indol-1-yl)piperidin-1-yl)butoxy)pyridin-3-yl)-2,5-dimethylpiperazine-1-carboxamide]	≥ 50
C[C@@H]1CN(c2ccc(C#N)c(Cl)c2)[C@@H](C)CN1C(=O)Nc1ccc(N2CCC(CCN3CCC(n4ccc5c(N6CCC(=O)NC6=O)cccc54)CC3)CC2)nc1 (racemic) [EAR115, rac-(trans)-4-(3-Chloro-4-cyanophenyl)-N-(6-(4-(2-(4-(4-(2,4-dioxotetrahydropyrimidin-1(2H)-yl)-1H-indol-1-yl)piperidin-1-yl)ethyl)piperidin-1-yl)pyridin-3-yl)-2,5-dimethylpiperazine-1-carboxamide]	≥ 50
CC(C)n1ccc2c(N3CCC(=O)NC3=O)cc(C(=O)N(C)CC3CCN(CCC4CCN(c5ccc(N6C(=S)N(c7ccc(C#N)c(C(F)(F)F)c7)C(=O)C6(C)C)cc5)CC4)CC3)cc21 [EAR91, N-((1-(2-(1-(4-(3-(4-Cyano-3-(trifluoromethyl)phenyl)-5,5-dimethyl-4-oxo-2-thioxoimidazolidin-1-yl)phenyl)piperidin-4-yl)ethyl)piperidin-4-yl)methyl)-4-(2,4-dioxotetrahydropyrimidin-1(2H)-yl)-1-isopropyl-N-methyl-1H-indole-6-carboxamide]	≥ 50
CC(C)n1ccc2c(N3CCC(=O)NC3=O)cc(C(=O)N3CCN(CCCOc4ccc(N5C(=S)N(c6ccc(C#N)c(C(F)(F)F)c6)C(=O)C5(C)C)cc4)CC3)cc21 [EAR94, 4-(3-(4-(3-(4-(4-(2,4-Dioxotetrahydropyrimidin-1(2H)-yl)-1-isopropyl-1H-indole-6-carbonyl)piperazin-1-yl)propoxy)phenyl)-4,4-dimethyl-5-oxo-2-thioxoimidazolidin-1-yl)-2-(trifluoromethyl)benzonitrile formate]	≥ 50
